We go through 40 compounds from publication PMC7006954 (Journal of medicinal chemistry, 2016).

Like-named read-outs stand apart in the source and are kept apart here.

In assay [1] the target is T1, human CD4 (CD4-YFP) expression in CHO•CD4-YFP cells (Homo sapiens, UniProt P01730). Briefly: CD4 down-modulation in CHO cells stably expressing CD4-YFP. The format is cell-based. To be noted: for DC50: read-out: IC50 CD4 (μM) mean ± SD, 50% down-modulation of CD4 expression, 24 h drug treatment.
Assay [2] has as its target T1, human CD4 (CD4-YFP) expression in CHO•CD4-YFP cells. To be noted: read-out: IC50 (CD4 down-modulation); cited from earlier work.
The mark [3] stands for this setting: stably CD4-YFP transfected CHO cells, n = 3, cyclohexylmethyl-tailed compounds.
Setting [4] is: CD4-YFP transfected CHO cells, n ≥ 3, benzyl-tailed compounds.

`C=C1CN(S(=O)(=O)c2ccc(C)cc2)CCCN(CC2CCCCC2)CCCN(S(=O)(=O)c2ccc(OCCCN)cc2)C1` [Compound 54]: in assay [1] (setting [3]), the DC50 is over 50 µM.
On to `C=C1CN(S(=O)(=O)c2ccc(C)cc2)CCCN(Cc2ccccc2)CCCN(S(=O)(=O)c2cccc(N)c2)C1` [Compound 44], for which the DC50 in assay [1] (setting [4]) was found to be 1.02 ± 0.09 µM.
For `C=C1CN(C(=O)c2ccc([N+](=O)[O-])cc2)CCCN(Cc2ccccc2)CCCN(S(=O)(=O)c2ccc(C)cc2)C1` [Compound 60], the DC50 in assay [1] (setting [4]) is over 50 µM.
In the case of `C=C1CN(C(=O)c2ccc(N)cc2)CCCN(Cc2ccccc2)CCCN(S(=O)(=O)c2ccc(C)cc2)C1.Cl` [Compound 62], the “percentage CD4 down-modulation measured at highest (50 μM) compound concentration” value in assay [1] (50 μM compound, CD4-YFP transfected CHO cells, 24 h) turned out to be 15%. Besides, the DC50 in assay [1] (setting [4]) is over 50 µM.
On to `C=C1CN(S(=O)(=O)c2ccc(C)cc2)CCCN(Cc2ccccc2)CCCN(S(=O)(=O)c2ccc3c(c2)OCO3)C1` [Compound 33], for which the DC50 in assay [1] (setting [4]) stood at 1.06 ± 0.12 µM.
In the case of `C=C1CN(S(=O)(=O)c2ccc(C)cc2)CCCN(CC2CCCCC2)CCCN(S(=O)(=O)c2ccc(N)cc2)C1` [Compound 46], the DC50 in assay [1] (setting [3]) is 1 ± 0.15 µM.
As for `C=C1CN(S(=O)(=O)c2ccc(C)cc2)CCCN(Cc2ccccc2)CCCN(S(=O)(=O)c2ccc(O)cc2)C1` [Compound 55], the DC50 in assay [1] (setting [4]) was found to be 3.58 ± 0.54 µM.
Still for that read-out and setting: under `C=C1CN(C(=O)c2ccc(OC)cc2)CCCN(Cc2ccccc2)CCCN(S(=O)(=O)c2ccc(C)cc2)C1` [Compound 58, 9-benzyl-3-methylene-5-(p-methoxybenzoyl)-1-(p-toluenesulfonyl)-1,5,9-triazacyclododecane] stands 4.22 ± 0.84 µM.
Turning to `C=C1CN(S(=O)(=O)c2ccc(C)cc2)CCCN(CC2CCCCC2)CCCN(S(=O)(=O)c2ccc(-n3cccc3)cc2)C1` [Compound 47], the DC50 in assay [1] (setting [3]) is 0.18 ± 0.01 µM.
In the case of `C=C1CN(S(=O)(=O)c2ccc(C)cc2)CCCN(Cc2ccccc2)CCCN(S(=O)(=O)c2ccc(N(C)C)cc2)C1` [Compound 32], the DC50 in assay [1] (setting [4]) stood at 0.17 ± 0.08 µM.
The same measure, in the same setting: the value for `C=C1CN(S(=O)(=O)c2ccc(C)cc2)CCCN(Cc2ccccc2)CCCN(S(=O)(=O)c2ccc(N)cc2)C1` [Compound 45] was 2.42 ± 0.42 µM.
For `C=C1CN(S(=O)(=O)c2ccc(C)cc2)CCCN(CC2CCCCC2)CCCN(S(=O)(=O)c2ccc(OCC)cc2)C1` [Compound 52], in assay [1] (setting [3]), the DC50 worked out at 0.19 ± 0.01 µM.
Regarding `C=C1CN(S(=O)(=O)c2ccccc2)CCCN(Cc2ccccc2)CCCN(S(=O)(=O)c2ccc(C)cc2)C1` [Compound 25, 1-(benzenesulfonyl)-9-benzyl-3-methylene-5-(p-toluenesulfonyl)-1,5,9-triazacyclododecane], the DC50 in assay [1] (setting [4]) came to 1.46 ± 0.05 µM.
Still for that read-out and setting: under `C=C1CN(S(=O)(=O)c2ccc(C)cc2)CCCN(Cc2ccccc2)CCCN(S(=O)(=O)N2CCOCC2)C1` [Compound 63] stands 1.08 ± 0.1 µM; under `C=C1CN(C(=O)c2ccc(C)cc2)CCCN(Cc2ccccc2)CCCN(S(=O)(=O)c2ccc(C)cc2)C1` [Compound 59], 3.78 ± 2.38 µM.
Turning to `C=C1CN(S(=O)(=O)c2ccc(C)cc2)CCCN(CC2CCCCC2)CCCN(S(=O)(=O)c2ccc(N3CCOCC3)cc2)C1` [Compound 48], the DC50 in assay [1] (setting [3]) was 0.13 ± 0.01 µM.
Still for that read-out and setting: the value for `C=C1CN(S(=O)(=O)c2ccc(C)cc2)CCCN(CC2CCCCC2)CCCN(S(=O)(=O)c2ccc(OC)cc2)C1` [Compound 1, reference compound] was 0.15 ± 0.01 µM.
Consider `C=C1CN(S(=O)(=O)c2ccc(C)cc2)CCCN(Cc2ccccc2)CCCN(S(=O)(=O)c2ccccc2[N+](=O)[O-])C1` [Compound 28], for which, in assay [1] (setting [4]), the DC50 turned out to be 0.7 ± 0.09 µM.
Consider `C=C1CN(S(=O)(=O)c2ccc(C)cc2)CCCN(Cc2ccccc2)CCCN(S(=O)(=O)c2ccn(C)c2)C1` [Compound 36], for which, in assay [1] (setting [4]), the DC50 was determined as 3.17 ± 0.64 µM.
On the same count and under the same terms, under `C=C1CN(S(=O)(=O)c2ccc(C)cc2)CCCN(Cc2ccccc2)CCCN(S(=O)(=O)c2ccc(OC)cc2)C1` [Compound 50, reference compound] stands 0.29 ± 0.09 µM; under `C=C1CN(C(=O)c2ccccc2)CCCN(Cc2ccccc2)CCCN(S(=O)(=O)c2ccc(C)cc2)C1` [Compound 61], 7.32 ± 1.7 µM.
As to `C=C1CN(S(=O)(=O)c2ccc(C)cc2)CCCN(CC2CCCCC2)CCCN(S(=O)(=O)c2ccc(OCCCN3C(=O)c4ccccc4C3=O)cc2)C1` [Compound 53], the DC50 in assay [1] (setting [3]) was determined as 0.75 ± 0.06 µM.
Take `C=C1CN(S(=O)(=O)c2ccc(C)cc2)CCCN(Cc2ccccc2)CCCN(S(=O)(=O)c2cccc(N(C)C)c2)C1` [Compound 38]: the DC50 in assay [1] (setting [4]) was 0.79 ± 0.1 µM.
The same measure, in the same setting: under `C=C1CN(S(=O)(=O)c2ccc(C)cc2)CCCN(Cc2ccccc2)CCCN(S(=O)(=O)c2ccc([N+](=O)[O-])cc2)C1` [Compound 27] stands 5.25 ± 1.1 µM; under `C=C1CN(S(=O)(=O)c2ccc(C)cc2)CCCN(Cc2ccccc2)CCCN(S(=O)(=O)c2ccc(OC)c(OC)c2)C1` [Compound 31], 0.31 ± 0.06 µM; under `C=C1CNCCCN(Cc2ccccc2)CCCN(S(=O)(=O)c2ccc(C)cc2)C1` [Compound 49, 9-Benzyl-3-methylene-1-(p-toluenesulfonyl)-1,5,9-triazacyclododecane], over 50 µM.
Still for that read-out and setting: under `C=C1CN(S(=O)(=O)c2ccc(C)cc2)CCCN(Cc2ccccc2)CCCN(S(=O)(=O)c2ccc(OC(F)(F)F)cc2)C1` [Compound 29] stands 1.2 ± 0.01 µM.
On the same count and under the same terms, the value for `C=C1CN(S(=O)(=O)c2ccc(C)cc2)CCCN(Cc2ccccc2)CCCN(S(=O)(=O)N(C)C)C1` [Compound 35] was 1.58 ± 0.2 µM.
As to `C=C1CN(S(=O)(=O)c2ccc(C)cc2)CCCN(CC2CCCCC2)CCCN(S(=O)(=O)c2ccc(O)cc2)C1` [Compound 51, 9-Cyclohexylmethyl-1-(p-hydroxybenzenesulfonyl)-3-methylene-5-(p-toluenesulfonyl)-1,5,9-triazacyclododecane], in assay [1] (setting [3]), the DC50 came out at 1.14 ± 0.02 µM.
As to `C=C1CN(S(=O)(=O)c2ccc(C)cc2)CCCN(Cc2ccccc2)CCCN(S(=O)(=O)c2cccc([N+](=O)[O-])c2)C1` [Compound 34], in assay [1] (setting [4]), the DC50 worked out at 2.02 ± 0.29 µM.
On the same count and under the same terms, under `C#CCOc1ccc(S(=O)(=O)N2CCCN(Cc3ccccc3)CCCN(S(=O)(=O)c3ccc(C)cc3)CC(=C)C2)cc1` [Compound 56] stands 0.46 ± 0.07 µM.
As to `C=C1CN(S(=O)(=O)c2ccc(C)cc2)CCCN(CC2CCCCC2)CCCN(S(=O)(=O)c2ccc(OCCCC)cc2)C1` [Compound 39, 1-(p-Butoxybenzenesulfonyl)-9-cyclohexylmethyl-3-methylene-5-(p-toluenesulfonyl)-1,5,9-triazacyclododecane], in assay [1] (setting [3]), the DC50 came out at 1.1 ± 0.13 µM.
For `C=C1CN(S(=O)(=O)c2ccc(C)cc2)CCCN(Cc2ccccc2)CCCN(S(=O)(=O)c2ccc(OC)cc2OC)C1` [Compound 30], the DC50 in assay [1] (setting [4]) worked out at 1.35 ± 0.3 µM.
Same read-out and setting: under `C=C1CN(S(=O)(=O)c2ccc(C)cc2)CCCN(Cc2ccccc2)CCCN(S(=O)(=O)c2ccc(SC)cc2)C1` [Compound 41, 9-Benzyl-3-methylene-1-(p-thiomethoxybenzenesulfonyl)-5-(p-toluenesulfonyl)-1,5,9-triazacyclododecane] stands 0.23 ± 0.05 µM; under `C=C1CN(S(=O)(=O)c2ccc(C)cc2)CCCN(Cc2ccccc2)CCCN(S(=O)(=O)c2ccc(F)cc2)C1` [Compound 37], 0.92 ± 0.11 µM.
As to `C=C1CN(S(=O)(=O)c2ccc(C)cc2)CCCN(CC2CCCCC2)CCCN(S(=O)(=O)c2ccc(N(C)C)cc2)C1` [Compound 40, 9-Cyclohexylmethyl-1-(p-(dimethylamino)benzenesulfonyl)-3-methylene-5-(p-toluenesulfonyl)-1,5,9-triazacyclododecane], in assay [1] (setting [3]), the DC50 came out at 0.063 ± 0.005 µM.
Regarding `C=C1CN(S(=O)(=O)c2ccc(C)cc2)CCCN(Cc2ccccc2)CCCN(S(=O)(=O)c2ccccc2N)C1` [Compound 43], in assay [1] (setting [4]), the DC50 is 2.12 ± 0.39 µM.
Still for that read-out and setting: the value for `C=C1CN(S(=O)(=O)c2ccc(C)cc2)CCCN(Cc2ccccc2)CCCN(S(=O)(=O)c2ccc(OC(=S)N(C)C)cc2)C1` [Compound 57] was 6.28 ± 2.04 µM.
As usually defined, the IC50 is the concentration needed to halve the response being measured. For `C=C1CN(S(=O)(=O)c2ccc(C)cc2)CCCN(Cc2ccccc2)CCCN(S(=O)(=O)c2ccc(C)cc2)C1` [CADA, Cyclotriazadisulfonamide], the IC50 in assay [2] was 0.4 µM.
On to `C=C1CN(S(=O)(=O)c2ccc(C)cc2)CCCN(Cc2ccccc2)CCCN(S(=O)(=O)c2ccc3ccccc3c2)C1` [Compound 26], for which the DC50 in assay [1] (setting [4]) was found to be 0.55 ± 0.17 µM.
